Laboratory results published in US20040097439A9, “Isolated polynucleotides having a reduced or an increased content of epigenetic control motifs and uses thereof” (priority 1999, published 2004).

Test system: histone deacetylases
Test: Relief of repressed LacZ transgenes in cleavage stage embryos by inhibitors of histone deacetylases
Format: cell-based, mouse
Conditions: for proportion of β-gal+ embryos after NaB treatment: repressed paternal transgene; for release from repression of LacZ transgenes in treated embryos: DCR6 and DCR7 2-cell embryos, NaB 2.5 mM or TSA 66 nM for 24 h
Method: One-cell embryos from different lines, carrying a transgene of maternal (A) or paternal (B) origin were recovered at 24 hphCG and allowed to develop in the absence (control) or presence of sodium butyrate (NaB; 2.5 mM) or trichostatin A (TSA; 66 nM) for 24 h. Aphidicolin, an inhibitor of DNA polymerases was used alone (Aph; 2 μg/ml) or in combination with sodium butyrate (Aph+NaB).
It is becoming more and more evident that at least part of the transcriptional repression dependent on methylated CpG islands is mediated by histone deacetylation. […] To test whether this mechanism could be responsible for the non-permissive transcriptional state established during gametogenesis and inherited by the embryo, cleavage stage embryos were treated with the deacetylase inhibitors, sodium butyrate (NaB) and the trichostatin A (TSA), two inhibitors of histone deacetylases (Yoshida et al., 1995).

| SMILES | proportion of β-gal+ embryos after NaB treatment (DCR1 line, 3% β-gal+ in untreated embryos) [%] | proportion of β-gal+ embryos after NaB treatment (DCR3 line, 18% β-gal+ in untreated embryos) [%] | proportion of β-gal+ embryos after NaB treatment (DCR5 line, 0% β-gal+ in untreated embryos) [%] | release from repression of LacZ transgenes in treated embryos |
| --- | --- | --- | --- | --- |
| CCCC(=O)[O-].[Na+] [NaB, sodium butyrate] | 70 | 100 | 10 | release from repression |
| CC(/C=C/C(=O)NO)=C\[C@@H](C)C(=O)c1ccc(N(C)C)cc1 [TSA, trichostatin A] |  |  |  | release from repression |
